# Results taken from ChEMBL document CHEMBL4038308, “Lipophosphonoxins II: Design, Synthesis, and Properties of Novel Broad Spectrum Antibacterial Agents” (J Med Chem, 2017).
# Tests used:
# Escherichia coli [1] = assay: Antibacterial activity against Escherichia coli CCM 3954 after 24 hrs by microdilution method; type: functional; conditions: CCM 3954, 24 h
# Pseudomonas aeruginosa [2] = assay: Antibacterial activity against Pseudomonas aeruginosa CCM 3955 after 24 hrs by microdilution method; type: functional; conditions: CCM 3955, 24 h
# Enterococcus faecalis = assay: Antibacterial activity against Enterococcus faecalis CCM 4224 after 24 hrs by microdilution method; type: functional; conditions: CCM 4224, 24 h
# Staphylococcus aureus [3] = assay: Antibacterial activity against Staphylococcus aureus CCM 4223 after 24 hrs by microdilution method; type: functional; conditions: CCM 4223, 24 h
# Bacillus subtilis = assay: Antibacterial activity against Bacillus subtilis after 24 hrs by microdilution method; type: functional
# Streptococcus agalactiae = assay: Antibacterial activity against Streptococcus agalactiae after 24 hrs by microdilution method; type: functional
# Escherichia coli [4] = assay: Antibacterial activity against Escherichia coli 16702 after 24 hrs by microdilution method; type: functional; conditions: Escherichia coli, 16702, 24 h
# Pseudomonas aeruginosa [5] = assay: Antibacterial activity against Pseudomonas aeruginosa 16575 after 24 hrs by microdilution method; type: functional; conditions: Pseudomonas aeruginosa, 16575, 24 h
# Staphylococcus aureus [6] = assay: Antibacterial activity against methicillin-resistant Staphylococcus aureus 4591 clinical isolates after 24 hrs by microdilution method; type: functional; conditions: Staphylococcus aureus, 4591, 24 h
# [7] = test system: Staphylococcus haemolyticus; assay: Antibacterial activity against fluoroquinolne-resistant Staphylococcus haemolyticus 16568 after 24 hrs by microdilution method; type: functional; conditions: Staphylococcus haemolyticus, 16568, 24 h
# [8] = test system: Staphylococcus epidermidis; assay: Antibacterial activity against Staphylococcus epidermidis 8700/B after 24 hrs by microdilution method; type: functional
# Enterococcus faecium = assay: Antibacterial activity against vancomycin-resistant Enterococcus faecium 419/ana clinical isolates after 24 hrs by microdilution method; type: functional
# Salmonella enteritidis = assay: Antibacterial activity against Salmonella enteritidis S2-25 after 24 hrs by microdilution method; type: functional, Salmonella enterica subsp. enterica serovar Enteritidis; conditions: Salmonella enterica, S2-25, 24 h
# Acinetobacter baumannii = assay: Antibacterial activity against Acinetobacter baumannii A3-08 after 24 hrs by microdilution method; type: functional; conditions: A3-08, 24 h
# [9] = test system: Stenotrophomonas maltophilia; assay: Antibacterial activity against Stenotrophomonas maltophilia S2-23 after 24 hrs by microdilution method; type: functional; conditions: S2-23, 24 h
# Burkholderia multivorans = assay: Antibacterial activity against Burkholderia multivorans after 24 hrs by microdilution method; type: functional
smiles,measurement,setting,value
CCCCCCCCCCCCCCCCOP(=O)(CCN(CCNC(=N)N)CCNC(=N)N)OC[C@H]1O[C@@H](n2ccc(=O)[nH]c2=O)[C@H](O)[C@@H]1O (some centres not stated),MIC,Escherichia coli [1],3.13 µg/mL
same,MIC,Pseudomonas aeruginosa [2],6.25 µg/mL
same,MIC,Enterococcus faecalis,25 µg/mL
same,MIC,Staphylococcus aureus [3],6.25 µg/mL
same,MIC,Bacillus subtilis,3.13 µg/mL
same,MIC,Streptococcus agalactiae,3.13 µg/mL
same,MIC,Escherichia coli [4],3.13 µg/mL
same,MIC,Pseudomonas aeruginosa [5],6.25 µg/mL
same,MIC,Staphylococcus aureus [6],6.25 µg/mL
same,MIC,[7],6.25 µg/mL
same,MIC,[8],3.13 µg/mL
same,MIC,Enterococcus faecium,50 µg/mL
same,MIC,Salmonella enteritidis,3.13 µg/mL
same,MIC,Acinetobacter baumannii,6.25 µg/mL
same,MIC,[9],3.13 µg/mL
same,MIC,Burkholderia multivorans,25 µg/mL
CCCCCCCCCCCCOP(=O)(CCN(CCCN)CCCN)OC[C@H]1O[C@@H](n2ccc(=O)[nH]c2=O)[C@H](O)[C@@H]1O (some centres not stated),MIC,Escherichia coli [1],25 µg/mL
same,MIC,Pseudomonas aeruginosa [2],3.13 µg/mL
same,MIC,Enterococcus faecalis,100 µg/mL
same,MIC,Staphylococcus aureus [3],25 µg/mL
same,MIC,Bacillus subtilis,3.13 µg/mL
same,MIC,Streptococcus agalactiae,3.13 µg/mL
same,MIC,Escherichia coli [4],25 µg/mL
same,MIC,Pseudomonas aeruginosa [5],50 µg/mL
same,MIC,Staphylococcus aureus [6],200 µg/mL
same,MIC,[7],200 µg/mL
same,MIC,[8],6.25 µg/mL
same,MIC,Enterococcus faecium,25 µg/mL
same,MIC,Salmonella enteritidis,6.25 µg/mL
same,MIC,Acinetobacter baumannii,6.25 µg/mL
same,MIC,[9],6.25 µg/mL
same,MIC,Burkholderia multivorans,> 200 µg/mL
CCCCCCCCCCCCCOP(=O)(CCN(CCCN)CCCN)OC[C@H]1O[C@@H](n2ccc(=O)[nH]c2=O)[C@H](O)[C@@H]1O (some centres not stated),MIC,Escherichia coli [1],25 µg/mL
same,MIC,Pseudomonas aeruginosa [2],3.13 µg/mL
same,MIC,Enterococcus faecalis,50 µg/mL
same,MIC,Staphylococcus aureus [3],12.5 µg/mL
same,MIC,Bacillus subtilis,3.13 µg/mL
same,MIC,Streptococcus agalactiae,6.25 µg/mL
same,MIC,Escherichia coli [4],50 µg/mL
same,MIC,Pseudomonas aeruginosa [5],25 µg/mL
same,MIC,Staphylococcus aureus [6],25 µg/mL
same,MIC,[7],6.25 µg/mL
same,MIC,[8],12.5 µg/mL
same,MIC,Enterococcus faecium,100 µg/mL
same,MIC,Salmonella enteritidis,50 µg/mL
same,MIC,Acinetobacter baumannii,50 µg/mL
same,MIC,[9],50 µg/mL
same,MIC,Burkholderia multivorans,50 µg/mL
CCCCCCCCCCCCCOP(=O)(CCN(CCCNC(=N)N)CCCNC(=N)N)OC[C@H]1O[C@@H](n2ccc(=O)[nH]c2=O)[C@H](O)[C@@H]1O (some centres not stated),MIC,Escherichia coli [1],12.5 µg/mL
same,MIC,Pseudomonas aeruginosa [2],3.13 µg/mL
same,MIC,Enterococcus faecalis,25 µg/mL
same,MIC,Staphylococcus aureus [3],6.25 µg/mL
same,MIC,Bacillus subtilis,1.56 µg/mL
same,MIC,Streptococcus agalactiae,3.13 µg/mL
same,MIC,Escherichia coli [4],12.5 µg/mL
same,MIC,Pseudomonas aeruginosa [5],25 µg/mL
same,MIC,Staphylococcus aureus [6],12.5 µg/mL
same,MIC,[7],3.13 µg/mL
same,MIC,[8],6.25 µg/mL
same,MIC,Enterococcus faecium,50 µg/mL
same,MIC,Salmonella enteritidis,12.5 µg/mL
same,MIC,Acinetobacter baumannii,25 µg/mL
same,MIC,[9],25 µg/mL
same,MIC,Burkholderia multivorans,50 µg/mL
CCCCCCCCCCCCCCCCOP(=O)(CCN(CCCNC(=N)N)CCCNC(=N)N)OC[C@H]1O[C@@H](n2ccc(=O)[nH]c2=O)[C@H](O)[C@@H]1O (some centres not stated),MIC,Escherichia coli [1],1.56 µg/mL
same,MIC,Pseudomonas aeruginosa [2],3.13 µg/mL
same,MIC,Enterococcus faecalis,6.25 µg/mL
same,MIC,Staphylococcus aureus [3],3.13 µg/mL
same,MIC,Bacillus subtilis,0.78 µg/mL
same,MIC,Streptococcus agalactiae,1.56 µg/mL
same,MIC,Escherichia coli [4],1.56 µg/mL
same,MIC,Pseudomonas aeruginosa [5],3.13 µg/mL
same,MIC,Staphylococcus aureus [6],3.13 µg/mL
same,MIC,[7],1.56 µg/mL
same,MIC,[8],1.56 µg/mL
same,MIC,Enterococcus faecium,25 µg/mL
same,MIC,Salmonella enteritidis,1.56 µg/mL
same,MIC,Acinetobacter baumannii,3.13 µg/mL
same,MIC,[9],1.56 µg/mL
same,MIC,Burkholderia multivorans,50 µg/mL
CCCCCCCCCCCCCCCCOP(=O)(CCN(CCCN)CCCN)OC[C@H]1O[C@@H](n2ccc(=O)[nH]c2=O)[C@H](O)[C@@H]1O (some centres not stated),MIC,Escherichia coli [1],3.13 µg/mL
same,MIC,Pseudomonas aeruginosa [2],6.25 µg/mL
same,MIC,Enterococcus faecalis,50 µg/mL
same,MIC,Staphylococcus aureus [3],12.5 µg/mL
same,MIC,Bacillus subtilis,0.78 µg/mL
same,MIC,Streptococcus agalactiae,3.13 µg/mL
same,MIC,Escherichia coli [4],3.13 µg/mL
same,MIC,Pseudomonas aeruginosa [5],3.13 µg/mL
same,MIC,Staphylococcus aureus [6],25 µg/mL
same,MIC,[7],3.13 µg/mL
same,MIC,[8],3.13 µg/mL
same,MIC,Enterococcus faecium,25 µg/mL
same,MIC,Salmonella enteritidis,3.13 µg/mL
same,MIC,Acinetobacter baumannii,3.13 µg/mL
same,MIC,[9],3.13 µg/mL
same,MIC,Burkholderia multivorans,50 µg/mL
CCCCCCCCCCCCCCCOP(=O)(CCN(CCN)CCN)OC[C@H]1O[C@@H](n2ccc(=O)[nH]c2=O)[C@H](O)[C@@H]1O (some centres not stated),MIC,Escherichia coli [1],1.56 µg/mL
same,MIC,Pseudomonas aeruginosa [2],1.56 µg/mL
same,MIC,Enterococcus faecalis,12.5 µg/mL
same,MIC,Staphylococcus aureus [3],6.25 µg/mL
same,MIC,Bacillus subtilis,0.78 µg/mL
same,MIC,Streptococcus agalactiae,3.13 µg/mL
same,MIC,Escherichia coli [4],1.56 µg/mL
same,MIC,Pseudomonas aeruginosa [5],1.56 µg/mL
same,MIC,Staphylococcus aureus [6],6.25 µg/mL
same,MIC,[7],1.56 µg/mL
same,MIC,[8],1.56 µg/mL
same,MIC,Enterococcus faecium,100 µg/mL
same,MIC,Salmonella enteritidis,1.56 µg/mL
same,MIC,Acinetobacter baumannii,3.13 µg/mL
same,MIC,[9],3.13 µg/mL
same,MIC,Burkholderia multivorans,50 µg/mL
